Source: patent publication US11634404B2 (priority 2016, dated 2023)

How the values were obtained:
Type in all cases: cell-based
panel of 168 GPCRs [1] = target: panel of 168 GPCRs (Homo sapiens, UniProt Q9P296); conditions: GPCR C5L2; agonist, 10 μM
panel of 168 GPCRs [2] = target: panel of 168 GPCRs (Homo sapiens, UniProt O14842); conditions: GPCR FFAR1; agonist, 10 μM
panel of 168 GPCRs [3] = target: panel of 168 GPCRs (Homo sapiens, UniProt Q9UBY5); conditions: GPCR EDG7; agonist, 10 μM
panel of 168 GPCRs [4] = target: panel of 168 GPCRs (Homo sapiens, UniProt P28222); conditions: GPCR HTR1B; agonist, 10 μM
panel of 168 GPCRs [5] = target: panel of 168 GPCRs (Homo sapiens, UniProt Q9NSD7); conditions: GPCR RXFP3; agonist, 10 μM
panel of 168 GPCRs [6] = target: panel of 168 GPCRs (Homo sapiens, UniProt Q03431); conditions: GPCR PTHR1; agonist, 10 μM
panel of 168 GPCRs [7] = target: panel of 168 GPCRs (Homo sapiens, UniProt P48546); conditions: GPCR GIPR; agonist, 10 μM
panel of 168 GPCRs [8] = target: panel of 168 GPCRs (Homo sapiens, UniProt P21917); conditions: GPCR DRD4; agonist, 10 μM
panel of 168 GPCRs [9] = target: panel of 168 GPCRs (Homo sapiens, UniProt P14416); conditions: GPCR DRD2L; agonist, 10 μM
panel of 168 GPCRs [10] = target: panel of 168 GPCRs (Homo sapiens, UniProt Q5NUL3); conditions: GPCR GPR120; agonist, 10 μM
panel of 168 GPCRs [11] = target: panel of 168 GPCRs (Homo sapiens, UniProt P08588); conditions: GPCR ADRB1; agonist, 10 μM
panel of 168 GPCRs [12] = target: panel of 168 GPCRs (Homo sapiens, UniProt P46663); conditions: GPCR BDKRB1; agonist, 10 μM
panel of 168 GPCRs [13] = target: panel of 168 GPCRs (Homo sapiens, UniProt P41597); conditions: GPCR CCR2; agonist, 10 μM
panel of 168 GPCRs [14] = target: panel of 168 GPCRs (Homo sapiens, UniProt Q96P65); conditions: GPCR GPR103; agonist, 10 μM
panel of 168 GPCRs [15] = target: panel of 168 GPCRs (Homo sapiens, UniProt P21730); conditions: GPCR C5AR1; agonist, 10 μM
panel of 168 GPCRs [16] = target: panel of 168 GPCRs (Homo sapiens, UniProt P35372); conditions: GPCR OPRM1; agonist, 10 μM
panel of 168 GPCRs [17] = target: panel of 168 GPCRs (Homo sapiens, UniProt P47898); conditions: GPCR HTR5A; agonist, 10 μM
panel of 168 GPCRs [18] = target: panel of 168 GPCRs (Homo sapiens, UniProt P49238); conditions: GPCR CX3CR1; agonist, 10 μM
panel of 168 GPCRs [19] = target: panel of 168 GPCRs (Homo sapiens, UniProt P30518); conditions: GPCR AVPR2; agonist, 10 μM
panel of 168 GPCRs [20] = target: panel of 168 GPCRs (Homo sapiens, UniProt P35414); conditions: GPCR AGTRL1; agonist, 10 μM
panel of 168 GPCRs [21] = target: panel of 168 GPCRs (Homo sapiens, UniProt O95977); conditions: GPCR EDG6; agonist, 10 μM
panel of 168 GPCRs [22] = target: panel of 168 GPCRs (Homo sapiens, UniProt P25101); conditions: GPCR EDNRA; agonist, 10 μM
panel of 168 GPCRs [23] = target: panel of 168 GPCRs (Homo sapiens, UniProt Q9HBW0); conditions: GPCR EDG4; agonist, 10 μM
panel of 168 GPCRs [24] = target: panel of 168 GPCRs (Homo sapiens, UniProt Q99500); conditions: GPCR EDG3; agonist, 10 μM
panel of 168 GPCRs [25] = target: panel of 168 GPCRs (Homo sapiens, UniProt P41586); conditions: GPCR ADCYAP1R1; agonist, 10 μM
panel of 168 GPCRs [26] = target: panel of 168 GPCRs (Homo sapiens, UniProt P35367); conditions: GPCR HRH1; agonist, 10 μM
panel of 168 GPCRs [27] = target: panel of 168 GPCRs (Homo sapiens, UniProt O43614); conditions: GPCR HCRTR2; agonist, 10 μM
panel of 168 GPCRs [28] = target: panel of 168 GPCRs (Homo sapiens, UniProt Q9UKP6); conditions: GPCR UTR2; agonist, 10 μM
panel of 168 GPCRs [29] = target: panel of 168 GPCRs (Homo sapiens, UniProt P21554); conditions: GPCR CNR1; agonist, 10 μM
panel of 168 GPCRs [30] = target: panel of 168 GPCRs (Homo sapiens, UniProt P30559); conditions: GPCR OXTR; agonist, 10 μM
panel of 168 GPCRs [31] = target: panel of 168 GPCRs (Homo sapiens, UniProt P32239); conditions: GPCR CCKBR; agonist, 10 μM
panel of 168 GPCRs [32] = target: panel of 168 GPCRs (Homo sapiens, UniProt P18089); conditions: GPCR ADRA2B; agonist, 10 μM

Sequence of panel of 168 GPCRs (Homo sapiens, UniProt P25101) (P25101 21-427 limits assumed): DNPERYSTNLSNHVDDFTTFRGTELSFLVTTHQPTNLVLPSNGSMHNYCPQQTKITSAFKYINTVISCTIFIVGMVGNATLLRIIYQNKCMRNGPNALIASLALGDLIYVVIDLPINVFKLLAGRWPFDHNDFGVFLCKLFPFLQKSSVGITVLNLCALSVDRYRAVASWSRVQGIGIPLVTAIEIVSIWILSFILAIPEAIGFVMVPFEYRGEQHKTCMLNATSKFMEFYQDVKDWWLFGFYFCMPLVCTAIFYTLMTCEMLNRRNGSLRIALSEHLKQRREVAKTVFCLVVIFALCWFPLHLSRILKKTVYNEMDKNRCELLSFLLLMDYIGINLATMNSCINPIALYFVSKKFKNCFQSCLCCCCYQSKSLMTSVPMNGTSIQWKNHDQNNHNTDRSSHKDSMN
Sequence of panel of 168 GPCRs (Homo sapiens, UniProt P48546) (P48546 22-466 limits assumed): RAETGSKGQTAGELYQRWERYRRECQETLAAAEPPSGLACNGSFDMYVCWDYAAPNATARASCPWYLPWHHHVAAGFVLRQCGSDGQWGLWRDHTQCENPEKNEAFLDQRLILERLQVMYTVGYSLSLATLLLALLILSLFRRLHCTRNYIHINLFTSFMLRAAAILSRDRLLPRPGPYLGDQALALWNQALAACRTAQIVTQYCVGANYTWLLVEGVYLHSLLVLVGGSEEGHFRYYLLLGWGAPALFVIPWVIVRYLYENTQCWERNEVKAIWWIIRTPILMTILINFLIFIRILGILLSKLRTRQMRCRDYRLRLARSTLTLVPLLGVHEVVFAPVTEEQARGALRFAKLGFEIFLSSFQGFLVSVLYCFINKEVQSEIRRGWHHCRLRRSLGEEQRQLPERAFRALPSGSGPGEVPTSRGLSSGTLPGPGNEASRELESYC
Sequence of panel of 168 GPCRs (Homo sapiens, UniProt P41586) (P41586 21-468 limits assumed): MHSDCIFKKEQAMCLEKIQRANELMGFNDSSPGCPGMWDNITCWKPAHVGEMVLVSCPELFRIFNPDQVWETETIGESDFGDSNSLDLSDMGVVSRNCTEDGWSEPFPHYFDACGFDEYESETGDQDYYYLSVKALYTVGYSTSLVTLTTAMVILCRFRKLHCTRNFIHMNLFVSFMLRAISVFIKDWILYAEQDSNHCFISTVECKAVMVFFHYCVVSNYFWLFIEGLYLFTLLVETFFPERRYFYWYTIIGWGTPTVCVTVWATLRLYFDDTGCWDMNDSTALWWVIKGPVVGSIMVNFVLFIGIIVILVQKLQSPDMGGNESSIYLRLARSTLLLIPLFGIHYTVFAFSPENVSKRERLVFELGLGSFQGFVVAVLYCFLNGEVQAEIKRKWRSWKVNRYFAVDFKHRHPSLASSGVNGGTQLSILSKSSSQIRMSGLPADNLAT
Sequence of panel of 168 GPCRs (Homo sapiens, UniProt Q03431) (Q03431 27-593 limits assumed): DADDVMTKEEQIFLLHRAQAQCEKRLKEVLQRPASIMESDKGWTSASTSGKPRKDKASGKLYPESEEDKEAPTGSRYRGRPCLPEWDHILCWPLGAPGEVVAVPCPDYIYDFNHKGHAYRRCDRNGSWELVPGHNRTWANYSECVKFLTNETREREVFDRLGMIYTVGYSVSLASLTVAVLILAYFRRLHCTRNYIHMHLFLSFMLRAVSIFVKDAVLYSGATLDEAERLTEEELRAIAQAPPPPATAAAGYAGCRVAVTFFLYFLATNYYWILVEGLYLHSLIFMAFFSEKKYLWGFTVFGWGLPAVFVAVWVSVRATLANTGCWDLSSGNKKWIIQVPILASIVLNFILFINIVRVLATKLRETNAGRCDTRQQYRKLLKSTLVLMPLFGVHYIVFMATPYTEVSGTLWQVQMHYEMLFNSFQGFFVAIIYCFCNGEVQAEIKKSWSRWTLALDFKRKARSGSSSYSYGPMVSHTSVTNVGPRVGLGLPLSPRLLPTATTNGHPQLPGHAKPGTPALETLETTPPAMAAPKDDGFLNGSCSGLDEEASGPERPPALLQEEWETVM

COc1ccc(OCCN2CCN(C(=O)c3cc4ccccc4[nH]3)CC2)cc1 [Compound 1, (1H-indol-2-yl)(4-(2-(4-methoxyphenoxy)ethyl)piperazin-1-yl)methanone]
β-Arrestin Recruitment activity (panel of 168 GPCRs [1]): 6%
β-Arrestin Recruitment activity (panel of 168 GPCRs [2]): 4%
β-Arrestin Recruitment activity (panel of 168 GPCRs [3]): 6%
β-Arrestin Recruitment activity (panel of 168 GPCRs [4]): 16%
β-Arrestin Recruitment activity (panel of 168 GPCRs [5]): 5%
β-Arrestin Recruitment activity (panel of 168 GPCRs [6]): 0%
β-Arrestin Recruitment activity (panel of 168 GPCRs [7]): 3%
β-Arrestin Recruitment activity (panel of 168 GPCRs [8]): 4%
β-Arrestin Recruitment activity (panel of 168 GPCRs [9]): 37%
β-Arrestin Recruitment activity (panel of 168 GPCRs [10]): 12%
β-Arrestin Recruitment activity (panel of 168 GPCRs [11]): 3%
β-Arrestin Recruitment activity (panel of 168 GPCRs [12]): 0%
β-Arrestin Recruitment activity (panel of 168 GPCRs [13]): 4%
β-Arrestin Recruitment activity (panel of 168 GPCRs [14]): −9%
β-Arrestin Recruitment activity (panel of 168 GPCRs [15]): 0%
β-Arrestin Recruitment activity (panel of 168 GPCRs [16]): 0%
β-Arrestin Recruitment activity (panel of 168 GPCRs [17]): 3%
β-Arrestin Recruitment activity (panel of 168 GPCRs [18]): 0%
β-Arrestin Recruitment activity (panel of 168 GPCRs [19]): 4%
β-Arrestin Recruitment activity (panel of 168 GPCRs [20]): 4%
β-Arrestin Recruitment activity (panel of 168 GPCRs [21]): 17%
β-Arrestin Recruitment activity (panel of 168 GPCRs [22]): 0%
β-Arrestin Recruitment activity (panel of 168 GPCRs [23]): 6%
β-Arrestin Recruitment activity (panel of 168 GPCRs [24]): 4%
β-Arrestin Recruitment activity (panel of 168 GPCRs [25]): 6%
β-Arrestin Recruitment activity (panel of 168 GPCRs [26]): 0%
β-Arrestin Recruitment activity (panel of 168 GPCRs [27]): 0%
β-Arrestin Recruitment activity (panel of 168 GPCRs [28]): 0%
β-Arrestin Recruitment activity (panel of 168 GPCRs [29]): 5%
β-Arrestin Recruitment activity (panel of 168 GPCRs [30]): 0%
β-Arrestin Recruitment activity (panel of 168 GPCRs [31]): 4%
β-Arrestin Recruitment activity (panel of 168 GPCRs [32]): −4%
